Source: ChEMBL document CHEMBL1201862, “PubChem BioAssay data set” (2004)
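Dose response: 5 concentrations. Exposure: 48 h. Format: 96-well plates. Endpoint: linear interpolation; highest concentration if not reached. The concentration for 50% growth inhibition is given as GI50.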 Active and inactive are the calls of the source. Rule as the data show it: active = GI50 up to about 1.1 µM and inactive = higher.

Key:
Assay in all cases: NCI-60 cell line screen, 48 h
A498 = tested on: A498
A549 = tested on: A549
COLO 205 = tested on: COLO 205
HCC 2998 = tested on: HCC 2998
HCT-116 = tested on: HCT-116
HOP-62 = tested on: HOP-62
K562 = tested on: K562
MDA-N = tested on: MDA-N
NCI-H226 = tested on: NCI-H226
NCI-H23 = tested on: NCI-H23
NCI/ADR-RES = tested on: NCI/ADR-RES
OVCAR-4 = tested on: OVCAR-4
OVCAR-8 = tested on: OVCAR-8
SF-268 = tested on: SF-268
SF-539 = tested on: SF-539
SK-MEL-5 = tested on: SK-MEL-5
SNB-75 = tested on: SNB-75
SW-620 = tested on: SW-620
T47D = tested on: T47D
UACC-62 = tested on: UACC-62

Measured: GI50

CCOc1ccc2ccc3cccnc3c2n1
inactive: A498 21 µM | A549 61 µM | COLO 205 28.7 µM | HCC 2998 51.6 µM | HCT-116 34 µM | HOP-62 18.5 µM | K562 31.9 µM | MDA-N > 100 µM | NCI-H226 39 µM | NCI-H23 61.7 µM | NCI/ADR-RES 37.7 µM | OVCAR-4 69.2 µM | OVCAR-8 72.8 µM | SF-268 > 100 µM | SF-539 > 100 µM | SK-MEL-5 32.7 µM | SNB-75 85.9 µM | SW-620 62.7 µM | T47D 32.7 µM | UACC-62 27 µM

O=[N+]([O-])c1c2nc3n(c2cc2c1nc1n2CCC1)CCC3
inactive: A498 > 100 µM | A549 > 100 µM | COLO 205 > 100 µM | HCC 2998 > 100 µM | HCT-116 > 100 µM | HOP-62 > 100 µM | K562 > 100 µM | MDA-N > 100 µM | NCI-H226 > 100 µM | NCI-H23 > 100 µM | NCI/ADR-RES > 100 µM | OVCAR-4 > 100 µM | OVCAR-8 > 100 µM | SF-268 > 100 µM | SF-539 > 100 µM | SK-MEL-5 > 100 µM | SNB-75 > 100 µM | SW-620 > 100 µM | T47D > 100 µM | UACC-62 > 100 µM

CCOC(=O)C1=NN(c2ccccc2)C(=O)/C1=C\NC(=S)C(N)=S
inactive: A498 > 100 µM | A549 66.1 µM | COLO 205 28.1 µM | HCC 2998 43.4 µM | HCT-116 20.5 µM | HOP-62 > 100 µM | K562 38 µM | MDA-N 32.8 µM | NCI-H226 54.5 µM | NCI-H23 87.1 µM | NCI/ADR-RES > 100 µM | OVCAR-4 40.9 µM | OVCAR-8 45.5 µM | SF-268 38.5 µM | SF-539 23.2 µM | SK-MEL-5 19.6 µM | SNB-75 47.3 µM | SW-620 38.5 µM | T47D 13.1 µM | UACC-62 29.3 µM

COC(=O)c1c(OC(C)=O)ccc2c1c1c(n2C)C(=O)c2ccccc2C1=O
inactive: A498 13.5 µM | A549 20.7 µM | COLO 205 55.3 µM | HCC 2998 26.8 µM | HCT-116 20.5 µM | HOP-62 17.3 µM | K562 66.2 µM | MDA-N 19 µM | NCI-H226 38.9 µM | NCI-H23 19.7 µM | NCI/ADR-RES 33.9 µM | OVCAR-4 28.6 µM | OVCAR-8 25.8 µM | SF-268 24.4 µM | SF-539 19.1 µM | SK-MEL-5 13.9 µM | SNB-75 7.93 µM | T47D 4.81 µM | UACC-62 35.3 µM
